Several values for one entry are separate records, joined by “and”; a condition that tells them apart may be missing. Equal values may be shown once.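 In this assay, cells in 96-well plates receive the compound at five concentrations for 48 hours. Endpoints are linearly interpolated between the surrounding concentrations. GI50 = concentration required for 50% inhibition of growth. TGI is the concentration that stops growth completely.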
What was measured:
Assay in all cases: DTP human tumour cell line panel, 48 h
SW-620 colon = test system: SW-620 colon
NCI-H460 lung = test system: NCI-H460 lung
UO-31 renal = test system: UO-31 renal
NCI-H522 lung = test system: NCI-H522 lung
HOP-62 NSCLC = test system: HOP-62 NSCLC
SK-MEL-5 melanoma = test system: SK-MEL-5 melanoma
MDA-MB-435 = test system: MDA-MB-435
HOP-92 NSCLC = test system: HOP-92 NSCLC
OVCAR-5 ovarian = test system: OVCAR-5 ovarian
IGROV1 ovarian = test system: IGROV1 ovarian

SMILES | GI50 (SW-620 colon) | TGI (SW-620 colon) | GI50 (NCI-H460 lung) | TGI (NCI-H460 lung) | GI50 (UO-31 renal) | TGI (UO-31 renal) | GI50 (NCI-H522 lung) | TGI (NCI-H522 lung) | GI50 (HOP-62 NSCLC) | TGI (HOP-62 NSCLC) | GI50 (SK-MEL-5 melanoma) | TGI (SK-MEL-5 melanoma) | GI50 (MDA-MB-435) | TGI (MDA-MB-435) | GI50 (HOP-92 NSCLC) | TGI (HOP-92 NSCLC) | GI50 (OVCAR-5 ovarian) | TGI (OVCAR-5 ovarian) | GI50 (IGROV1 ovarian) | TGI (IGROV1 ovarian)
Nc1nc(N)c2c(n1)NC(c1sc(Cl)nc1Cl)CC(c1ccc3c(c1)OCO3)=N2 (centres undefined) | 2980 nM | 21.5 µM | 3990 nM | 18.1 µM | 4520 nM | 24.5 µM | 2510 nM | 13 µM | 5320 nM | 22.3 µM | 3430 nM | 13.3 µM | 353 nM | 11.6 µM | 4250 nM | 23.8 µM | 6.03 µM | 33 µM | 10400 nM | 47.6 µM
Oc1ccc(Cl)cc1/C=N\NC(=S)N/N=C/c1cc(Cl)ccc1O | 4410 nM | > 100 µM | 2580 nM | 13.3 µM | 1050 nM | 15.5 µM | 1450 nM | 5.15 µM | 2470 nM | > 100 µM | 1340 nM | 3.88 µM | 3740 nM | > 100 µM | 1920 nM | 14.7 µM | 5.04 µM | > 100 µM | 2520 nM | > 100 µM
CC1=C(N2CC2)C(=O)c2ccccc2C1=O |  | 1.68 µM |  | 2.39 µM |  | 10.6 µM |  | 2.36 µM |  | 3.21 µM |  | 0.405 µM |  | 2.84 µM |  |  |  | 1.69 µM |  | 8.58 µM
Nc1ccn(C2OC(C(OC3OC(CO)C(O)C(N)C3O)C(O)C(O)C(O)C(O)CO)C(N)C(O)C2O)c(=O)n1 (centres undefined) |  | > 100 µM |  | > 100 µM |  | > 100 µM |  | 93.5 µM |  | > 100 µM |  | > 100 µM |  | > 100 µM |  | 24.6 µM |  | > 100 µM |  | > 100 µM
O=C(NOCCO)c1cc(CN2OCCCC2=O)c(F)c(F)c1Nc1ccc(I)cc1F | < 10 nM and 5.29 nM | > 100 µM | 12900 nM and > 10000 nM | > 100 µM | 170 nM and 164 nM | 13.1 µM and > 10 µM | 18300 nM and > 7900 nM | > 65.4 µM | 19.5 nM | > 100 µM | 597 nM | 23.9 µM and > 10 µM | < 10 nM and 8.79 nM | 77.1 µM and > 10 µM | 22.3 nM and 17.7 nM | 0.688 µM and 0.436 µM | < 0.01 µM and 0.00485 µM | > 100 µM | 101 nM and 24.6 nM | > 52.5 µM
Cc1cc2nc3c4ccc(Br)cc4n(CCN(C)C)c3nc2cc1C | 478 nM | 1.84 µM | 1260 nM | 3.95 µM | 561 nM | 9.5 µM | 1990 nM | 4.66 µM | 1710 nM | 10.7 µM | 1720 nM | 3.12 µM | 1680 nM | 3.04 µM | 1300 nM | 5.28 µM | 1.99 µM | 5.88 µM | 1120 nM | 3.97 µM
O=C(Nc1cccc(C(F)(F)F)c1)c1cc2ccccc2cc1O | 2510 nM | > 100 µM | 1410 nM | > 44.1 µM | 1120 nM | > 22.1 µM | 471 nM | > 19.9 µM | 2610 nM | 11.8 µM | 987 nM | 3.5 µM | 1370 nM | 4.72 µM | 252 nM | 1.61 µM | 3.5 µM | > 100 µM | 2880 nM | > 57.7 µM

From PubChem BioAssay (NCI)
